Structures can show the parent of a compound that is named as a salt.
How the values were obtained:
[1] = biological target: T1, human JAK1 (a.a. 837-1142) (Homo sapiens, UniProt P23458); assay: In vitro JAK kinase assay (HTRF), JAK1; assay type: biochemical; details: JAK1, 90 μM ATP; read-out: EXAMPLE A JAK2-JAK1 HTRF-2 IC50
T1 construct: human JAK1 (a.a. 837-1142); His tag (N); made in house; host or cells: insect cells (baculovirus)
Protocol: (§1) Compounds herein were tested for inhibitory activity of JAK targets according to the following in vitro assay described in Park et al., Analytical Biochemistry 1999, 269, 94-104. The catalytic domains of human JAK1 (a.a. 837-1142), JAK2 (a.a. 828-1132) and JAK3 (a.a. 781-1124) with an N-terminal His tag were expressed using baculovirus in insect cells and purified. The catalytic activity of JAK1, JAK2 or JAK3 was assayed by measuring the phosphorylation of a biotinylated peptide. The phosphorylated peptide was detected by homogenous time resolved fluorescence (HTRF). IC50s of compounds were measured for each kinase in the reactions that contain the enzyme, ATP and 500 nM peptide in 50 mM Tris (pH 7.8) buffer with 100 mM NaCl, 5 mM DTT, and 0.1 mg/mL (0.01%) BSA. The ATP concentration in the reactions was 90 μM for JAK1, 30 μM for JAK2 and 3 μM for JAK3. Reactions were carried out at room temperature for 1 hr and then stopped with 20 μL 45 mM EDTA, 300 nM SA-APC, 6 nM Eu—Py20 in assay buffer (Perkin Elmer, Boston, Mass.). Binding to the Europium labeled antibody took place for 40 minutes and HTRF signal was measured on a Fusion plate reader (Perkin Elmer, Boston, Mass.).

TF1-BCRABL1 cells = TF1-BCRABL1 cells (Homo sapiens, UniProt P00519); assay: ABL1 cell based assay: viability of ABL1-dependent cell line (CellTiter-Glo); details: 72 hours, cell viability; read-out: EXAMPLE F JAK2-TF1-BCRABL1 IC50
Sequence of TF1-BCRABL1 cells (P00519 whole entry, change not shown): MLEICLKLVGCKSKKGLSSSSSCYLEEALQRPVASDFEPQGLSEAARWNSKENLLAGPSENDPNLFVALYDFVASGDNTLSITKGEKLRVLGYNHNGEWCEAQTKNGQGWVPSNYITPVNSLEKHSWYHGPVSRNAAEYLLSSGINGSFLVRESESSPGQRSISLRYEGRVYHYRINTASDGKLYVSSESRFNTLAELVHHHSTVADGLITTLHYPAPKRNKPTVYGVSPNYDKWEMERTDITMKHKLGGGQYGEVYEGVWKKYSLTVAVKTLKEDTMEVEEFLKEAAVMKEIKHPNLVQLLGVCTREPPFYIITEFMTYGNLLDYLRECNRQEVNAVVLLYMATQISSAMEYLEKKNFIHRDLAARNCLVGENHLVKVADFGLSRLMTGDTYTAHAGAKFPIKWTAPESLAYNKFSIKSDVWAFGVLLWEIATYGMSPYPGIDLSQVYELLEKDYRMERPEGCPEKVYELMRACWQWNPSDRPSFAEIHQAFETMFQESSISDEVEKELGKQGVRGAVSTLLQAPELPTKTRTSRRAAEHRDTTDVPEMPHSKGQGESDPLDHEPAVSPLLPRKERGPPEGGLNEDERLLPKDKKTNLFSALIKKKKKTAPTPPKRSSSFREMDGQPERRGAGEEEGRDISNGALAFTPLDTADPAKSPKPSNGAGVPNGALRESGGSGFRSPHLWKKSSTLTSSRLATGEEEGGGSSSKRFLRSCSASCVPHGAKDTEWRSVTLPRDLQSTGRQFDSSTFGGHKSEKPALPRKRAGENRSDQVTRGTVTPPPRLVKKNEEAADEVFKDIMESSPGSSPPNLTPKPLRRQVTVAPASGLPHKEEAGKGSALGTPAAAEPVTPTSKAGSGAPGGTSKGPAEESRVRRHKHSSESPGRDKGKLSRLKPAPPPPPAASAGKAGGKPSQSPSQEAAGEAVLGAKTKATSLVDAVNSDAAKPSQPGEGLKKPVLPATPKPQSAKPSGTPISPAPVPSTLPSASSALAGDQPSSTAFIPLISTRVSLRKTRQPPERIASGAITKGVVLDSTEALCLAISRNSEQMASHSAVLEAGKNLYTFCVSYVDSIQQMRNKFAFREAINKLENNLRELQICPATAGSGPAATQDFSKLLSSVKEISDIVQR
Protocol: One or more compounds herein were tested for inhibitory activity of ABL1 targets according to at least one of the following cellular assays.
Cancer cell lines dependent on ABL1 kinase activity for proliferation and/or survival were plated at 3000 cells per well (96 well plate format) in RPMI 1640, and 10% FBS. Compounds were added to the cells in DMSO/media (final concentration 0.2% DMSO) and incubated for 72 hours at 37° C., 5% CO2. The effect of compound on cell viability was assessed using the CellTiter-Glo Luminescent Cell Viability Assay (Promega) followed by TopCount (Perkin Elmer, Boston, Mass.) quantitation. ABL1-dependent cell lines can include those naturally dependent on ABL1 activity or those engineered to be dependent on ABL1 activity (e.g. BaF/3 cells). The latter can be generated using wild-type ABL1 or mutant ABL1 (such as T315I ABL1) so that the activity of compounds can be assessed against different variants of the ABL1 kinase. Potential off-target effects of compounds were measured in parallel using a non-ABL1 driven cell line with the same assay readout. […] All experiments were performed in duplicate or greater.

[2] = biological target: T2, human JAK2 (a.a. 828-1132) (Homo sapiens, UniProt O60674); assay: In vitro JAK kinase assay (HTRF), JAK2; assay type: biochemical; details: JAK2, 30 μM ATP; read-out: EXAMPLE A HTS-JAK2 HTRF-2 IC50
T2 construct: JAK2 (a.a. 828-1132); His tag (N); made in house; host or cells: insect cells (baculovirus)
T2 sequence (O60674 828-1132): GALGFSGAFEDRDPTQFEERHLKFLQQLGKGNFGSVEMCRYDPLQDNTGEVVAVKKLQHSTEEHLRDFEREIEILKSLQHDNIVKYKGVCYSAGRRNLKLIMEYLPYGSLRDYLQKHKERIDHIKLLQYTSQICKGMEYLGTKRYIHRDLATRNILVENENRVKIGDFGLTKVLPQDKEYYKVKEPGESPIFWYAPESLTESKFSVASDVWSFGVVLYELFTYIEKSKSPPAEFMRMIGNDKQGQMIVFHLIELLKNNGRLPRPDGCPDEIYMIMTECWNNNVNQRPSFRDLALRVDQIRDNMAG
Protocol: as §1

[3] = biological target: T3, human JAK3 (a.a. 781-1124) (Homo sapiens, UniProt P52333); assay: In vitro JAK kinase assay (HTRF), JAK3; assay type: biochemical; details: JAK3, 3 μM ATP; read-out: EXAMPLE A JAK2-JAK3 HTRF-2 IC50
T3 construct: JAK3 (a.a. 781-1124); His tag (N); made in house; host or cells: insect cells (baculovirus)
T3 sequence (P52333 781-1124): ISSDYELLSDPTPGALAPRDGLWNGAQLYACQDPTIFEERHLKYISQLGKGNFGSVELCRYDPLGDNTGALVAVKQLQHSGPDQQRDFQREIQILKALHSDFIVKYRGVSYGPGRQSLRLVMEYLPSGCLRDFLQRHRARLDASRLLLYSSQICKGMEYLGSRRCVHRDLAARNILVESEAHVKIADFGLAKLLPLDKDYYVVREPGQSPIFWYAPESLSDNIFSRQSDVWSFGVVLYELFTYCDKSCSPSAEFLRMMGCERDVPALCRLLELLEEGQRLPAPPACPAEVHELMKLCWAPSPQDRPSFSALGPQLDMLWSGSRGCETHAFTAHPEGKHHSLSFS
Protocol: as §1

T1 sequence (P23458 849-1154): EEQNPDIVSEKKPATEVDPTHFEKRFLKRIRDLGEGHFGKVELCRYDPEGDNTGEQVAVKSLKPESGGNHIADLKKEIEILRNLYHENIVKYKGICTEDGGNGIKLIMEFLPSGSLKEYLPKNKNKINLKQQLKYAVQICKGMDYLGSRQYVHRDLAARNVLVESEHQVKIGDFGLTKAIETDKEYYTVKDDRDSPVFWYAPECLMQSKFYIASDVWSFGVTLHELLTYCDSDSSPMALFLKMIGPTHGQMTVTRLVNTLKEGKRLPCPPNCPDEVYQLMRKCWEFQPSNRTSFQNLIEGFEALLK

SMILES | IC50 [1] [nM] | IC50 [2] [nM] | IC50 [3] [nM] | GI50 (TF1-BCRABL1 cells) [nM]
Cc1ccc(NC(=O)c2cccc(C(F)(F)F)c2)cc1-c1ccc2c(c1)[nH]c1nc(N)ncc12 [Example 67, N-[3-(2-Amino-9H-pyrimido[4,5-b]indol-7-yl)-4-methylphenyl]-3-(trifluoro-methyl)benzamide trifluoroacetate] | ≤ 500 | ≤ 500 | ≤ 500 | ≤ 500
Cc1ccc(NC(=O)c2cc(N(C)C)cc(C(F)(F)F)c2)cc1-c1ccc2c(c1)[nH]c1ncncc12 [Example 36, 3-(dimethylamino)-N-[4-methyl-3-(9H-pyrimido[4,5-b]-indol-7-yl)phenyl]-5-(trifluoromethyl)benzamide] | ≤ 500 | ≤ 500 | ≤ 500 | ≤ 500
Cc1ccc(NC(=O)c2cc(N3CCCC(O)C3)cc(C(F)(F)F)c2)cc1-c1ccc2c(c1)[nH]c1ncncc12 (stereo not shown) [Example 30, 3-(3-hydroxypiperidin-1-yl)-N-[4-methyl-3-(9H-pyrimido[4,5-b]indol-7-yl)phenyl]-5-(trifluoromethyl)benzamide] | ≤ 500 | ≤ 500 | ≤ 500 | ≤ 500
Cc1ccc(NC(=O)c2cc(NCCCn3ccnc3)cc(C(F)(F)F)c2)cc1-c1ccc2c(c1)[nH]c1ncncc12 [Example 35, 3-{[3-(1H-imidazol-1-yl)-propyl]amino}-N-[4-methyl-3-(9H-pyrimido[4,5-b]indol-7-yl)phenyl]-5-(trifluoromethyl)-benzamide] | ≤ 500 | ≤ 500 | ≤ 500 | ≤ 500
Cc1ncc(NC(=O)c2cc(NCCCN(C)C)cc(C(F)(F)F)c2)cc1-c1ccc2c(c1)[nH]c1ncncc12 [Example 77, 3-[3-(dimethylamino)propyl]amino-N-[6-methyl-5-(9H-pyrimido[4,5-b]indol-7-yl)pyridin-3-yl]-5-(trifluoromethyl)benzamide tris(trifluoroacetate)] | ≤ 500 | ≤ 500 | ≤ 500 | ≤ 500
Cc1ccc(NC(=O)c2cc(-n3cncn3)cc(C(F)(F)F)c2)cc1-c1ccc2c(c1)[nH]c1ncncc12 [Example 24, N-[4-methyl-3-(9H-pyrimido-[4,5-b]indol-7-yl)phenyl]-3-(1H-1,2,4-triazol-1-yl)-5-(trifluoromethyl)benzamide] | ≤ 500 | ≤ 500 | ≤ 500 | ≤ 500
Cc1ccc(NC(=O)c2cc(N3CCN(CCO)CC3)cc(C(F)(F)F)c2)cc1-c1ccc2c(c1)[nH]c1ncncc12 [Example 32, 3-[4-(2-hydroxyethyl)piperazin-1-yl]-N-[4-methyl-3-(9H-pyrimido[4,5-b]indol-7-yl)-phenyl]-5-(trifluoromethyl)-benzamide] | ≤ 500 | ≤ 500 | ≤ 500 | ≤ 500
Cc1ccc(NC(=O)c2cc(-n3cnc(C=O)c3)cc(C(F)(F)F)c2)cc1-c1ccc2c(c1)[nH]c1ncncc12 [Example 20, 3-(4-Formyl-1H-imidazol-1-yl)-N-[4-methyl-3-(9H-pyrimido[4,5-b]indol-7-yl)phenyl]-5-(trifluoromethyl)benzamide trifluoroacetate] | ≤ 500 | ≤ 500 | ≤ 500 | ≤ 500
Cc1ccc(NC(=O)c2cc(C(F)(F)F)cc(C(F)(F)F)c2)cc1-c1ccc2c(c1)[nH]c1ncncc12 [Example 9, N-[4-methyl-3-(9H-pyrimido-[4,5-b]indol-7-yl)phenyl]-3,5-bis(trifluoromethyl)benzamide] | ≤ 500 | ≤ 500 | ≤ 500 | ≤ 500
Cc1ccc(NC(=O)c2cc(N3CCC(O)CC3)cc(C(F)(F)F)c2)cc1-c1ccc2c(c1)[nH]c1ncncc12 [Example 29, 3-(4-hydroxypiperidin-1-yl)-N-[4-methyl-3-(9H-pyrimido[4,5-b]indol-7-yl)phenyl]-5-(trifluoromethyl)benzamide] | ≤ 500 | ≤ 500 | ≤ 500 | ≤ 500
Cc1ccc(NC(=O)c2cc(N3CCC(N(C)C)C3)cc(C(F)(F)F)c2)cc1-c1ccc2c(c1)[nH]c1ncncc12 (stereo not shown) [Example 37, 3-[3-(dimethylamino)-pyrrolidin-1-yl]-N-[4-methyl-3-(9H-pyrimido[4,5-b]indol-7-yl)phenyl]-5-(trifluoromethyl)-benzamide] | ≤ 500 | ≤ 500 | ≤ 500 | ≤ 500
Cc1ccc(NC(=O)c2cc(-n3ccnc3)cc(C(F)(F)F)c2)cc1-c1ccc2c(c1)[nH]c1ncncc12 [Example 23, 3-(1H-imidazol-1-yl)-N-[4-methyl-3-(9H-pyrimido[4,5-b]-indol-7-yl)phenyl]-5-(trifluoromethyl)benzamide] | ≤ 500 | ≤ 500 | ≤ 500 | ≤ 500
Cc1ccc(NC(=O)c2cc(C(F)(F)F)cc(Cl)c2F)cc1-c1ccc2c(c1)[nH]c1ncncc12 [Example 8, 3-chloro-2-fluoro-N-[4-methyl-3-(9H-pyrimido[4,5-b]-indol-7-yl)phenyl]-5-(trifluoro-methyl)benzamide] | ≤ 500 | ≤ 500 | ≤ 500 | ≤ 500

Now from value to compound, other results behind:

IC50 [1] [nM] | IC50 [2] [nM] | IC50 [3] [nM] | SMILES | GI50 (TF1-BCRABL1 cells) [nM]
≤ 500 | ≤ 500 | ≤ 500 | Cc1ccc(NC(=O)c2cc(NCCN3CCOCC3)cc(C(F)(F)F)c2)cc1-c1ccc2c(c1)[nH]c1ncncc12 [Example 31, N-[4-methyl-3-(9H-pyrimido-[4,5-b]indol-7-yl)phenyl]-3-[(2-morpholin-4-ylethyl)amino]-5-(trifluoromethyl)benzamide] | ≤ 500
≤ 500 | ≤ 500 | ≤ 500 | COc1ccc(C(=O)Nc2ccc(C)c(-c3ccc4c(c3)[nH]c3ncncc34)c2)cc1C(F)(F)F [Example 10, 4-methoxy-N-[4-methyl-3-(9H-pyrimido[4,5-b]indol-7-yl)-phenyl]-3-(trifluoromethyl)-benzamide] | ≤ 500
≤ 500 | ≤ 500 | ≤ 500 | Cc1ccc(NC(=O)c2cc(C(F)(F)F)ccn2)cc1-c1ccc2c(c1)[nH]c1ncncc12 [Example 18, N-[4-methyl-3-(9H-pyrimido[4,5-b]indol-7-yl)-phenyl]-4-(trifluoromethyl) pyridine-2-carboxamide] | ≤ 500
≤ 500 | ≤ 500 | ≤ 500 | Cc1ncc(NC(=O)c2cc(F)cc(C(F)(F)F)c2)cc1-c1ccc2c(c1)[nH]c1ncncc12 [Example 71, 3-Fluoro-N-[6-methyl-5-(9H-pyrimido[4,5-b]indol-7-yl)pyridin-3-yl]-5-(trifluoromethyl)benzamide] | ≤ 500
≤ 500 | ≤ 500 | ≤ 500 | Cc1ccc(NC(=O)c2ccc(F)c(C(F)(F)F)c2)cc1-c1ccc2c(c1)[nH]c1ncncc12 [Example 4, 4-fluoro-N-[4-methyl-3-(9H-pyrimido[4,5-b]indol-7-yl)-phenyl]-3-(trifluoromethyl)benzamide] | ≤ 500
≤ 500 | ≤ 500 | ≤ 500 | Cc1ccc(NC(=O)c2cc(N3CCC(O)C3)cc(C(F)(F)F)c2)cc1-c1ccc2c(c1)[nH]c1ncncc12 (stereo not shown) [Example 34, 3-(3-hydroxypyrrolidin-1-yl)-N-[4-methyl-3-(9H-pyrimido-[4,5-b]indol-7-yl)phenyl]-5-(trifluoromethyl)benzamide] | ≤ 500

— patent US8513270B2, “Substituted heterocycles as Janus kinase inhibitors” (Incyte Corporation, priority 2006, dated 2013)
